Data taken from patent publication US20130326728A1, “AGENTS FOR INCREASED RESISTANCE AGAINST OXIDATIVE STRESS CONDITIONS” (KATHOLIEKE UNIVERSITEIT LEUVEN, priority 2010, published 2013).
“Also recorded” adds a separate entry of the source.

Experiments:
[1] = tested on: Saccharomyces cerevisiae strain BY4741; assay: Halo test of H2O2 tolerance of OSIP-overexpressing yeast; format: cell-based; settings: 15 μL of 240 mM H2O2, galactose vs glucose agar, 48 h at 30° C.; versus negative controls
Experimental: Resistance of the selected yeast transformants and the two positive control transformants against oxidative stress induced by H2O2 was additionally assayed in a halo test, by spotting 15 μL of 240 mM H2O2 on SC-ura agar, containing either glucose or galactose, and inoculated with 1/200 of overnight yeast culture as described previously (23). After 48 h of incubation at 30° C., diameters of the halos were measured.
The halo-test comprises a predefined but continuous concentration gradient of H2O2, applied to inoculated agar plates. Upon incubation, circles (halos) of growth inhibition are visible. By comparing the diameter of the halos of plates with yeast grown on glucose (not allowing for expression of the OSIP) and galactose (inducing overexpression of the OSIP) the effect of the OSIP on oxidative stress tolerance was quantified.

[2] = tested on: peroxide-induced ROS in yeast; assay: ROS accumulation assay (H2DCFDA) in peroxide-treated yeast with exogenous OSIP; format: cell-based; settings: 500 μM peptide, compared to mock treatment
Experimental: (§1) ROS, after H2O2 treatment in the absence or presence of 500 μM OSIP, were determined using 2,7-dichlorodihydrofluorescein diacetate (H2DCFDA) staining as described previously (24). Survival of WT yeast in PBS following H2O2 treatment in the absence or presence of 500 μM OSIP was assessed as described (25).
(§2) The effect of OSIP108 on endogenous ROS levels induced by peroxide in yeast were evaluated. Peroxide-induced ROS in yeast in the absence and presence of OSIP108 were measured using 2,7-dichlorodihydrofluorescein diacetate (H2DCFDA) (FIG. 3A). […] Moreover, we found the survival of peroxide-treated yeast cells (5 mM) to increase 27-fold upon incubation with 500 μM OSIP108 (FIG. 3B).

WT yeast = assay: Survival assay of peroxide-treated WT yeast with exogenous OSIP; format: cell-based; settings: for effect on survival of yeast cells after treatment with peroxide (in words): exogenous addition of the peptides
Experimental: as §1, §2

yeast BY4741 = assay: Yeast growth inhibition by apoptosis-inducing compounds (OD600) with or without OSIP108; format: cell-based, Saccharomyces cerevisiae
Experimental: Yeast growth was monitored upon treatment with different apoptosis-inducing compounds in the presence (black bars) or absence (white bars) of 200 μM OSIP108. Percentage growth was calculated as the ratio of the OD600 of the treated culture over an unstressed yeast culture after 10 h (A) or 48 h (B) of incubation.
In this respect, in parallel with mitochondrial copper toxicity, the use of the other mitochondrial toxins, in casu valproic acid, tunicamycin, doxycyclin and cisplatin, expand the range of causes of mitochondrial dysfunction and help find a broader basis for compounds rescuing mitochondrial dysfunction. Optical density (OD600) of yeast BY4741 was monitored upon treatment with different apoptosis-inducing compounds in the presence or absence of 200 μM OSIP108. OSIP108 and apoptosis-inducers were added simultaneously to the yeast cells. Percentage growth was calculated as the ratio of the OD600 of the treated culture over an unstressed yeast culture after 10 h or 48 h of incubation. […] Also, OSIP108 but not OSIP(C3A) can rescue copper- and cisplatin-induced growth inhibition of yeast

Col-0 A. thaliana plants = assay: Paraquat lesion diameter on A. thaliana leaves infiltrated with OSIP108; format: in vivo, Arabidopsis thaliana; settings: three days after paraquat (5 μl, 100 μM); leaf infiltrated with 100 μM OSIP108 24 h before; control 4.45±1.37 mm
Experimental: At least twelve soil grown, 4 week old Col-0 A. thaliana plants, were used in which one leaf of each plant was syringe-infiltrated with 100 μM OSIP108 dissolved in 1% dimethyl sulphoxide (DMSO). At least 12 control plants were mock treated with 1% DMSO only. After 24 h incubation in the growth chamber, the plants were inoculated with a drop of 5 μl paraquat (100 μM). The lesion diameters caused by the paraquat treatment were measured and compared 2 and 3 days after the treatment.

[3] = tested on: human hepatoma cell line HepG2; assay: HepG2 cell viability (MTT) in presence of copper or cisplatin; format: cell-based
Experimental: The mean and SE of three experiments is shown. No: viability of cells without addition of peptide; OSIP: OSIP108 was added simultaneously added to cells together with Cu; OSIP pre, cells were preincubated with OSIP108 for 12 h prior to addition of Cu.
The human hepatoma cell line HepG2 which naturally expresses hATP7B was incubated with 100 μM of peptide OSIP108. The viability of cells was determined after 48 h exposure to toxic copper concentrations of 0.75 mM by MTT assay. The viability was calculated relative to cells that receive no copper (100%).

yeast Δccc2 mutant [4] = assay: Copper-induced growth inhibition of yeast Δccc2 mutant overexpressing the OSIP108 gene; format: cell-based; settings: overexpression of the gene encoding OSIP108
Source text: Copper ions are known to induce apoptosis of hepatocytes, one of the underlying mechanisms of copper-induced toxicity in Wilson's Disease (WD). WD is caused by mutations in the ATPase ATP7b.

yeast Δccc2 mutant [5] = assay: Exogenous OSIP108 on yeast Δccc2 mutant at lethal copper dose (MTT viability dye halo, ROS); format: cell-based; settings: exogenous addition
Experimental: This was tested by spotting 5 μL of 10 mM OSIP108 onto agar plates containing a yeast Δccc2 mutant, 500 μM CuSO4 and a viability dye based on MTT. Plates were incubated for 24 h and placed at 4° C. for 2 days. Blue halos were indicative of surviving yeast cells.

[6] = tested on: CHO cell lines expressing ATP7b; assay: Viability (MTT) of CHO cells expressing ATP7b under toxic copper; format: cell-based; settings: 100 μM OSIP108, 0.75 mM copper, 48 h
Experimental: (§3) No: viability of cells without addition of peptide; OSIP: OSIP108 was added simultaneously added to cells together with Cu; and OSIP pre: cells were preincubated with the peptide for 12 h prior to addition of Cu.
(§4) CHO cell lines expressing either ATP7b or ATP7b mutant H1069Q (a mutation frequently found in patients having Wilson's Disease) were incubated with OSIP108 (100 μM). The viability of cells was determined after 48 h exposure to toxic copper concentrations of 0.75 mM by MTT assay and calculated relative to cells that receive no copper (100%).

[7] = tested on: CHO cell lines expressing ATP7b mutant H1069Q; assay: Viability (MTT) of CHO cells expressing ATP7b mutant H1069Q under toxic copper; format: cell-based; settings: 100 μM OSIP108, 0.75 mM copper, 48 h
Experimental: as §3, §4

Sequence	halo test: average difference in halo diameter / tolerance to H2O2 [1]	peroxide-induced endogenous ROS (DCF fluorescence intensity) [2]	effect on survival of yeast cells after treatment with peroxide (in words) (WT yeast)	increase of survival of peroxide-treated yeast cells (WT yeast; 5 mM peroxide, 500 μM OSIP108)	rescue of copper- and cisplatin-induced growth inhibition of yeast (yeast BY4741)	yeast growth in presence of cisplatin (yeast BY4741; 200 uM OSIP108, 250 and 125 μM cisplatin, compared to control treatment)	rescue of yeast growth inhibition by other apoptosis-inducers (yeast BY4741; 200 μM OSIP108, apoptosis-inducers other than cisplatin)	average lesion diameter (Col-0 A. thaliana plants)	copper resistance of HepG2 (viability) ([3]; FIG. 5, 100 μM OSIP108, 0.75 mM copper, 48 h, MTT)	survival of HepG2 cells in the presence of copper or cisplatin ([3]; pre-incubation with peptide)	copper-induced growth inhibition of Δccc2 mutant (yeast Δccc2 mutant [4])	copper-induced accumulation of reactive oxygen species (ROS) in Δccc2 mutant (yeast Δccc2 mutant [5])	viability of the Δccc2 yeast mutant (yeast Δccc2 mutant [5]; in presence of copper)	survival of Δccc2 yeast mutant at lethal copper dose (yeast Δccc2 mutant [5]; 5 μL of 10 mM OSIP108 spotted, 500 μM CuSO4)	copper resistance / viability of CHO cells expressing ATP7b [6]	copper resistance / viability of CHO cells expressing ATP7b mutant H1069Q [7]
MIIINNDNYLLLFYNNN (listed as Arabidopsis thaliana) [SIP14—1]	significant enhanced tolerance	decrease in the amount of endogenous ROS	less effect than SIP108													
MIIIYYCFIIIIN (listed as Arabidopsis thaliana) [SIP14—2]	significant enhanced tolerance	decrease in the amount of endogenous ROS	less effect than SIP108													
MLCVLQGLRE (listed as Arabidopsis thaliana) [OSIP108]	significantly lower	significantly lower		27 fold	can rescue	significant increase in growth	fails to rescue	2.18±1.60 mm	significantly enhances copper resistance	increased survival	could alleviate copper-induced growth inhibition	reduced	increased viability	induces survival	enhanced the copper resistance; also recorded: significantly enhances copper resistance	enhanced the copper resistance; also recorded: significantly enhances copper resistance
MLMYRMRSGAN (listed as Arabidopsis thaliana) [SIP11]	significant enhanced tolerance	decrease in the amount of endogenous ROS	less effect than SIP108													
